In a melting point compilation (Tetko et al.; mined from patent text by program, amines drawn as free bases though some values may be those of a salt):

Structure (SMILES) | melting point
C#Cc1ccc2c(c1)c1cc(-c3ccc(Cl)cc3Cl)c(=O)n(C)c1n2C | 184 to 185 °C
O=c1scc(-c2ccc(CCO)cc2)s1 | 92 to 94 °C
O=C(O)C12CC3CC(F)(CC(F)(C3)C1)C2 | 162 to 164 °C
O=C1O[C@@H](Cn2ccnn2)CN1c1ccc(-c2ccc(C3=NOC(CS(=O)(=O)CCc4ccncc4)C3)nc2)c(F)c1 (some centres undefined) | 195 °C
COc1cc(OC)nc(Cc2ccccc2N)n1 | 82 to 84 °C
CCc1cc(Br)cc2[nH]c(=O)oc(=O)c12 | 208 to 210 °C
C[N+](C)([O-])c1ccc(/C=C/c2c(Cl)cccc2Cl)cc1 | 80 to 82 °C
Cc1ccc(Oc2ccc(C(=O)c3ccc(Oc4ccc(C)c(C)c4)cc3)cc2)cc1C | 68 to 69 °C
N#Cc1cc(C#N)cc(Oc2c(C3CC3)nn(CCO)c2C2CC2)c1 | 115 to 117 °C
CSc1nc2cc(C(F)(F)F)ccc2n1N | 170 to 173 °C
CCOC(=O)COc1coc(C)cc1=O | 95 to 98 °C
OOC12C=CC=CC=CC=CC=CC1=CC=CO2 (centres undefined) | 104 to 106 °C
CN1CC(Cn2cccn2)CC2c3cccc4[nH]cc(c34)CC21 (centres undefined) | 192 to 194 °C
CC(=O)NCCCc1ccc(Cl)c2c1CCO2 | 76 to 78 °C
CNc1nc(-c2ccc(Cl)cc2)c(CCC(=O)O)o1 | 217 to 218 °C
CCN(CC)C(=O)c1ncccc1OC(=S)N(CC)CC | 70 to 72 °C
CCc1c(Sc2cc(C)cc(C)c2)n(CC2=CCC(CO)C2)c(=O)[nH]c1=O (centres undefined) | 57 to 60 °C
CCNC(=O)c1nc(Cl)c(Cl)[nH]1 | 146 °C
COc1ccc(S(=O)(=O)N2c3cc(F)ccc3-c3ccc(F)cc3C2C)c(OC)c1 (centres undefined) | 112 to 115 °C
O=C(O)Cc1c(C(=O)c2ccc(Cl)cc2)[nH]c2ccc(OC(F)(F)F)cc12 | 195 °C

Structure (SMILES) | melting point
CC(C)(C)NC(=NC#N)Nc1cnc2ccccc2c1 | 228 to 229 °C
CCOC(=O)COc1cccc(Br)c1CC(=O)O | 181 to 183 °C
N#Cc1cc(-c2ccc(Cl)s2)[nH]c1Cl | > 200 °C
COC(=O)CONC(=O)c1c(Cl)ccc(Cl)c1OC | 102 to 105 °C
CC(C)CC(=O)OC(C)OC(=O)NC1(C(=O)O)CC1 (centres undefined) | 117 to 119 °C
Cc1nc2n(C)c(C)cn2c(=O)c1CCBr | 125 °C
Cc1ccc(C(F)(F)C(F)(F)c2ccc(Br)cc2)cc1 | 104 to 106 °C
Cc1cc(=O)n(-c2cc(C(=O)O)c(Cl)cc2F)c(=O)n1C | 236 to 239 °C
CCOC(=O)c1cn(-c2ccc(C(F)(F)F)cn2)nc1C | 88 to 89 °C
CC(C)(Cn1c(CCO)nc2c(N)nc3ccccc3c21)NS(C)(=O)=O | 209 to 212 °C
O=C1C(=c2[nH]c(=c3[nH]c(=C4C(=O)N(c5ccccc5)C(=O)N(c5ccccc5)C4=O)c4ccccc34)c3ccccc23)C(=O)N(c2ccccc2)C(=O)N1c1ccccc1 | > 300 °C
Cc1nc2ccc3c(c2o1)OC(CN1CC=C(c2c[nH]c4ccc(Cl)cc24)CC1)CO3 (centres undefined) | 144 to 145 °C
CC(=O)SCC(CC(C)C)C(=O)O (centres undefined) | 42 to 47 °C
CC1COC2(CCN(c3nc(=O)c4cc(C#N)cc([N+](=O)[O-])c4s3)CC2)O1 (centres undefined) | 251 to 253 °C
CCc1ccc2ncc(CO)c(OC(C)C)c2c1 | 43 to 46 °C
CP(=O)(O)C[C@@H](O)CN | 221 to 222 °C
Oc1ccc2c(c1)Cc1cc(Br)ccc1-2 | 183 to 184 °C
CC(=O)OCCc1sc2nc(=NS(=O)(=O)c3ccc(C)cc3)sn2c1-c1ccc2c(c1)CCCC2 | 126 to 127 °C
N#Cc1ccc(C=NO)c(F)c1 | 179 to 182 °C
Cc1c(CN(C)C)cc(C(C)(C)CC(C)(C)C)c(O)c1C | 130 to 132 °C

The next lines start with the values.

melting point | Structure (SMILES)
158 to 160 °C | CC(C)c1ccc(-n2nnc(-c3ccc(O)cc3)n2)cc1
194 to 196 °C | O=C(Nc1ccccc1Oc1ccc(Cl)cc1Cl)C1CCN(S(=O)(=O)c2cc(Cl)ccc2Cl)CC1
104 to 106 °C | COC(=O)c1ccc(CN([C@@H](CO)c2ccccc2)S(=O)(=O)c2ccc(Cl)cc2)cc1
122 to 124 °C | CCOC(=O)c1sc(N2CCN(Cc3ccccc3)C2=O)nc1C
108 to 111 °C | CCCCC1c2ccccc2-c2cc(Br)ccc2N1S(=O)(=O)c1ccc(OC)cc1 (centres undefined)
139 to 140 °C | O=C1C(=Cn2ccnc2)CSc2ccccc21
180 to 182 °C | OC1CCN(c2nc(-c3ccccc3)nc3ccccc23)C1 (centres undefined)
188 to 189 °C | O=C(O)C=C(c1ccccc1)c1ccc([N+](=O)[O-])cc1
148 °C | Cc1cccc(NC(=O)NCC(=O)N(CC(=O)OC(C)(C)C)c2ccccc2F)c1
247 to 249 °C | C1=c2ccccc2=NCO1
151 to 153 °C | CCC(OC)c1cccc2nc3n(c12)CCCN3c1ccc(Cl)cc1Cl (centres undefined)
125 °C | c1ccc(CN2CCN(c3nc4c(c(N5CCOCC5)n3)SCCC4)CC2)cc1
162 to 163 °C | CCOCc1nc2c(N)nc3ccccc3c2n1CC1CC(c2ccccc2)N(C)O1 (centres undefined)
227 to 228 °C | COC(=O)c1cc(O)nn1-c1ccccc1
170 to 175 °C | O=C(O)CCNc1ccc(C(=O)c2ccccc2)cc1[N+](=O)[O-]
235 to 245 °C | O=c1oc2cc(OCc3nnn[nH]3)cc(OCc3nnn[nH]3)c2c2c1CC(c1ccccc1)CC2 (centres undefined)
163 °C | CCC(=O)Nc1ccc(NC(=O)CN2CCN(CCCCC(c3ccc(F)cc3)c3ccc(F)cc3)C(C(N)=O)C2)c(C(C)=O)c1 (centres undefined)
107 to 108 °C | Cc1nccc(-c2ccccc2)c1CC[C@H]1C[C@H](O)CC(=O)O1 (relative stereo)
210 to 211 °C | NC(=O)c1nc(-c2ccccc2)c[nH]1
194 to 196 °C | COc1ccc(Cl)cc1C(=O)NC1Cc2ccc(S(=O)(=O)NC(=O)NCC3CCCC3)cc2C1 (centres undefined)

melting point | Structure (SMILES)
66 to 68 °C | COc1cccc2c1OC(COS(=O)(=O)c1ccc(C)cc1)CO2 (centres undefined)
95 to 100 °C | CC(CCc1cccc(OCCC(NC(=O)OCc2ccccc2)C(=O)O)c1)=NNC=NN (centres undefined)
210 to 212 °C | CN(C(=O)c1sc2cc(C(=O)O)ccc2c1S)c1ccc2sc3ccccc3c(=O)c2c1
203 °C | Nc1nc2ccc(NC(=O)C(=O)N3CCC(Cc4ccccc4)CC3)cc2s1
160 to 169 °C | CN(C)c1nc(=O)c2ccccc2n1Cc1ccc(F)cc1
154 to 155 °C | CC(C)C(NC(=O)Cn1cccc(NC(=O)CCc2ccccc2)c1=O)C(=O)C(F)(F)F (centres undefined)
130 to 135 °C | CCOc1ccccc1N(C[C@H]1CCC[C@H](CN(C(=O)Nc2ccc(N(C)C)cc2)c2ccccc2OCC)C1)C(=O)Nc1ccc(N(C)C)cc1 (relative stereo)
91 to 92 °C | CC(=O)OC(CN(Cc1ccccc1)Cc1ccccc1)c1ccc2c(c1)CCN2C(C)=O (centres undefined)
159 to 160 °C | O=C(NCCO)c1cccc(-c2cccc3cc(Cc4cccc(F)c4)oc23)c1
163 to 165 °C | Cc1ccc(-c2cccc(/C=C/C(=O)Nc3ccc(CN(C)CC#N)cc3)c2)cc1
196 to 197 °C | O=C(CC(=O)c1cc(O)ccc1O)c1ccc(OCc2ccccc2)c(OCc2ccccc2)c1
142 to 144 °C | CCOC(=O)c1c(O)c2cccnc2n(Cc2ccc(Cl)cc2)c1=O
318 to 328 °C | c1ccc2oc(-c3ccc(-c4nc5ccccc5o4)cc3)nc2c1
143 to 145 °C | N#Cc1cc([N+](=O)[O-])ccc1N1CCC(OC(=O)c2ccccc2)CC1
185 to 186 °C | Cc1oc(-c2ccccc2)nc1COc1ccc(C(=O)Nc2nn(-c3ccccc3)cc2C=O)cc1
138 to 140 °C | CC(C)(O)C(O)c1ccc(-c2ccc(C(CC3CCOCC3)c3ccc(S(C)(=O)=O)c(Cl)c3)[nH]2)nc1 (centres undefined)
137 to 139 °C | CC(=O)c1ccc(Cc2c(Cl)cc(NN=Cc3ccccc3)cc2Cl)cc1
165 to 168 °C | O=C(O)CC(CSc1nc2ccccc2[nH]1)C(=O)O (centres undefined)
136 to 137 °C | Nc1c(CC(=O)O)cccc1C(=O)c1ccc(F)cc1
229 to 230 °C | O=C(c1ccc(-c2ccncn2)cc1)N1CCN(S(=O)(=O)c2cc3cc(Cl)ccc3[nH]2)CC1

melting point | Structure (SMILES)
118 to 120 °C | CC(C)OC(=O)Cn1c(-c2ccc(Cl)cc2)nc2cccnc21
195 to 196 °C | CCn1cc(C(=O)O)c(=O)c2cc(F)c(-c3ccnc(CNC(=O)OCc4ccccc4)n3)c(F)c21
150 °C | NC(=O)C1CCN(C(c2ccccc2)c2ccccc2)CC1
180 to 181 °C | CCCNC(=O)c1cccc(-c2nc(=O)c3ccccc3s2)n1
102 to 103 °C | CC(C)[C@H]1c2ccc(F)cc2CC[C@]1(O)CCNCc1nc2ccccc2s1
102 to 104 °C | CCOC(=O)c1c2ccc(Cl)cc2c(-c2ccccc2)n1CCCN(CC)C(C)=O
154 to 155 °C | CC1(O)c2ccccc2-c2[nH]nc(-c3ccccc3)c21 (centres undefined)
84 to 85 °C | CCOC=Nc1nc(-c2ccc(C3CCCCC3)cc2)cs1
112 to 113 °C | COc1ccc(C(=O)Nc2ccc(C(C)(C)CNC(=O)c3nn(C)cc3Br)cc2)cc1OC
200 to 202 °C | COc1ccc(CC(=O)c2c(O)c3cccnc3n(-c3ccccc3)c2=O)c(OC)c1
148 to 149 °C | N#Cc1c(N)c(C#N)c(-c2ccccc2)c2c1CCC2
191 to 192 °C | FC(F)C(F)(F)Oc1cccc(Nc2nccc(-c3ccncc3)n2)c1
163 to 167 °C | N#Cc1cc(C(=O)NNC(=O)c2occ(-c3ccccc3)c2-c2ccccc2)ccc1OC(=O)c1ccccc1
86 °C | CCOC(=O)C(C)Oc1ccc(N(C)c2cc3ccc(Cl)cc3c(Cl)n2)cc1 (centres undefined)
91 to 92 °C | CCOC(=O)NC(=NCCCc1c[nH]cn1)NCCSCc1ccccc1
123 to 124 °C | O=C(NCCO)c1cccc(-c2cccc3cc(Cc4ccc(OCC(F)(F)F)nc4)sc23)c1
217 to 220 °C | CC(C)n1nc(-c2nc(N)c(C(N)=O)nc2-c2ccccc2)ccc1=O
189 to 190 °C | Oc1ccc(-c2n[nH]c3ccccc23)cc1
114 to 116 °C | CCC(C(c1ccc(OC)cc1)c1ccc(C(C)(C)C)cc1)[N+](=O)[O-] (centres undefined)
